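Results reflect a 48-hour exposure of cells in 96-well plates to compound at five concentrations. Here, GI50 denotes the concentration required for 50% inhibition of growth.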 Activity calls are given as the source filed them. No stated cut-off is given here; in the data, active = GI50 up to about 1.1 µM and inactive = higher.
Assays:
Experiment in all cases: NCI anticancer screen, dose series, 48 h
MOLT-4 = tested on: MOLT-4
SN12C = tested on: SN12C
786-0 = tested on: 786-0
RXF 393 = tested on: RXF 393
SF-268 = tested on: SF-268
OVCAR-3 = tested on: OVCAR-3
OVCAR-8 = tested on: OVCAR-8
OVCAR-4 = tested on: OVCAR-4
HOP-92 = tested on: HOP-92
HCT-116 = tested on: HCT-116
M14 = tested on: M14
UACC-257 = tested on: UACC-257
HOP-62 = tested on: HOP-62
OVCAR-5 = tested on: OVCAR-5
TK-10 = tested on: TK-10
SR = tested on: SR
KM-20L2 = tested on: KM-20L2
SK-MEL-5 = tested on: SK-MEL-5
UO-31 = tested on: UO-31
RPMI-8226 = tested on: RPMI-8226
NCI-H460 = tested on: NCI-H460
IGROV-1 = tested on: IGROV-1
DLD-1 = tested on: DLD-1
LXFL 529 = tested on: LXFL 529
XF498 = tested on: XF498
U-251 = tested on: U-251
NCI-H226 = tested on: NCI-H226
EKVX = tested on: EKVX
DMS-114 = tested on: DMS-114
CAKI-1 = tested on: CAKI-1
HL-60 = tested on: HL-60
DMS-273 = tested on: DMS-273
HCC 2998 = tested on: HCC 2998
SF-539 = tested on: SF-539
UACC-62 = tested on: UACC-62
K562 = tested on: K562
SK-OV-3 = tested on: SK-OV-3
LOX IMVI = tested on: LOX IMVI
KM12 = tested on: KM12
SW-620 = tested on: SW-620
SK-MEL-2 = tested on: SK-MEL-2
CCRF-CEM = tested on: CCRF-CEM
A498 = tested on: A498
SF-295 = tested on: SF-295
Malme-3M = tested on: Malme-3M
SK-MEL-28 = tested on: SK-MEL-28
NCI-H522 = tested on: NCI-H522
M19-MEL = tested on: M19-MEL
NCI-H23 = tested on: NCI-H23
SNB-19 = tested on: SNB-19
SNB-75 = tested on: SNB-75
HT-29 = tested on: HT-29
ACHN = tested on: ACHN
HCT-15 = tested on: HCT-15
COLO 205 = tested on: COLO 205
HOP-18 = tested on: HOP-18
MCF7 = tested on: MCF7
SNB-78 = tested on: SNB-78
NCI/ADR-RES = tested on: NCI/ADR-RES
A549 = tested on: A549

Compound: CC(C)COC(=O)N1N=NC2C3OC(CC3=O)C21 (stereo not given)
- GI50 (MOLT-4): > 100 µM (inactive)
- GI50 (SN12C): > 100 µM (inactive)
- GI50 (786-0): > 100 µM (inactive)
- GI50 (RXF 393): > 100 µM (inactive)
- GI50 (SF-268): > 100 µM (inactive)
- GI50 (OVCAR-3): > 100 µM (inactive)
- GI50 (OVCAR-8): > 100 µM (inactive)
- GI50 (OVCAR-4): > 100 µM (inactive)
- GI50 (HOP-92): > 100 µM (inactive)
- GI50 (HCT-116): > 100 µM (inactive)
- GI50 (M14): > 100 µM (inactive)
- GI50 (UACC-257): > 100 µM (inactive)
- GI50 (HOP-62): > 100 µM (inactive)
- GI50 (OVCAR-5): > 100 µM (inactive)
- GI50 (TK-10): > 100 µM (inactive)
- GI50 (SR): > 100 µM (inactive)
- GI50 (KM-20L2): > 100 µM (inactive)
- GI50 (SK-MEL-5): > 100 µM (inactive)
- GI50 (UO-31): > 100 µM (inactive)
- GI50 (RPMI-8226): > 100 µM (inactive)
- GI50 (NCI-H460): > 100 µM (inactive)
- GI50 (IGROV-1): > 31.6 µM (inactive)
- GI50 (DLD-1): > 100 µM (inactive)
- GI50 (LXFL 529): > 100 µM (inactive)
- GI50 (XF498): > 100 µM (inactive)
- GI50 (U-251): > 100 µM (inactive)
- GI50 (NCI-H226): > 100 µM (inactive)
- GI50 (EKVX): > 100 µM (inactive)
- GI50 (DMS-114): > 100 µM (inactive)
- GI50 (CAKI-1): > 100 µM (inactive)
- GI50 (HL-60): > 100 µM (inactive)
- GI50 (DMS-273): > 100 µM (inactive)
- GI50 (HCC 2998): > 100 µM (inactive)
- GI50 (SF-539): > 100 µM (inactive)
- GI50 (UACC-62): 43.6 µM (inactive)
- GI50 (K562): > 100 µM (inactive)
- GI50 (SK-OV-3): 40.4 µM (inactive)
- GI50 (LOX IMVI): > 100 µM (inactive)
- GI50 (KM12): > 100 µM (inactive)
- GI50 (SW-620): > 100 µM (inactive)
- GI50 (SK-MEL-2): > 100 µM (inactive)
- GI50 (CCRF-CEM): > 100 µM (inactive)
- GI50 (A498): > 100 µM (inactive)
- GI50 (SF-295): > 100 µM (inactive)
- GI50 (Malme-3M): > 100 µM (inactive)
- GI50 (SK-MEL-28): > 100 µM (inactive)
- GI50 (NCI-H522): > 100 µM (inactive)
- GI50 (M19-MEL): > 100 µM (inactive)
- GI50 (NCI-H23): > 100 µM (inactive)
- GI50 (SNB-19): > 100 µM (inactive)
- GI50 (SNB-75): > 100 µM (inactive)
- GI50 (HT-29): > 100 µM (inactive)
- GI50 (ACHN): > 100 µM (inactive)
- GI50 (HCT-15): > 100 µM
- GI50 (COLO 205): > 100 µM (inactive)
- GI50 (HOP-18): > 100 µM (inactive)

Compound: Cc1c2cc[n+](Cc3ccc(I)cc3)cc2c(C)c2c1[nH]c1ccccc12
- GI50 (MOLT-4): 0.574 µM (active)
- GI50 (SN12C): 0.548 µM (active)
- GI50 (RXF 393): 0.893 µM (active)
- GI50 (SF-268): 0.495 µM (active)
- GI50 (OVCAR-3): 0.791 µM (active)
- GI50 (OVCAR-8): 0.685 µM (active)
- GI50 (OVCAR-4): 0.546 µM (active)
- GI50 (HOP-92): 0.56 µM (active)
- GI50 (HCT-116): 0.574 µM (active)
- GI50 (UACC-257): 0.646 µM (active)
- GI50 (HOP-62): 0.778 µM (active)
- GI50 (OVCAR-5): 1.37 µM (inactive)
- GI50 (KM-20L2): 0.748 µM (active)
- GI50 (MCF7): 0.783 µM (active)
- GI50 (SK-MEL-5): 0.49 µM (active)
- GI50 (UO-31): 3.14 µM (inactive)
- GI50 (RPMI-8226): 0.518 µM (active)
- GI50 (NCI-H460): 0.281 µM (active)
- GI50 (IGROV-1): 1.1 µM (active)
- GI50 (DLD-1): 0.94 µM (active)
- GI50 (XF498): 0.433 µM (active)
- GI50 (U-251): 0.21 µM (active)
- GI50 (NCI-H226): 0.552 µM (active)
- GI50 (EKVX): 1.19 µM (inactive)
- GI50 (DMS-114): 0.605 µM (active)
- GI50 (CAKI-1): 0.714 µM (active)
- GI50 (HL-60): 0.488 µM (active)
- GI50 (DMS-273): 0.506 µM (active)
- GI50 (HCC 2998): 0.881 µM (active)
- GI50 (SF-539): 1.74 µM (inactive)
- GI50 (UACC-62): 1.12 µM (active)
- GI50 (K562): 0.643 µM (active)
- GI50 (SK-OV-3): 3.84 µM (inactive)
- GI50 (LOX IMVI): 2.16 µM (inactive)
- GI50 (KM12): 0.402 µM (active)
- GI50 (SW-620): 0.912 µM (active)
- GI50 (SK-MEL-2): 0.614 µM (active)
- GI50 (CCRF-CEM): 0.448 µM (active)
- GI50 (A498): 0.697 µM (active)
- GI50 (SF-295): 0.296 µM (active)
- GI50 (Malme-3M): 0.582 µM (active)
- GI50 (SK-MEL-28): 1.45 µM (inactive)
- GI50 (SNB-78): 0.731 µM (active)
- GI50 (NCI/ADR-RES): > 25 µM (inactive)
- GI50 (NCI-H522): 0.692 µM (active)
- GI50 (M19-MEL): 0.254 µM (active)
- GI50 (NCI-H23): 0.65 µM (active)
- GI50 (SNB-19): 0.471 µM (active)
- GI50 (SNB-75): 0.0914 µM (active)
- GI50 (HT-29): 0.857 µM (active)
- GI50 (HCT-15): 7.8 µM
- GI50 (COLO 205): 0.61 µM (active)
- GI50 (HOP-18): 1 µM (active)
- GI50 (A549): 0.849 µM (active)

From ChEMBL document CHEMBL1201862, “PubChem BioAssay data set” (2004)
